Test results taken from patent US9546173B2 (Novartis AG, priority 2012, dated 2017).

What follows are compounds tested against activated ERK2 (Homo sapiens (Human), UniProt P28482) (assay: Activated ERK2 kinase assay (AlphaScreen, ERKtide peptide phosphorylation)). Conditions: […] ERK2, 200 nM ERKtide peptide, 35 μM ATP, 30 min preincubation; read-out: ERK2 IC50.
activated ERK2, sequence (P28482 whole entry): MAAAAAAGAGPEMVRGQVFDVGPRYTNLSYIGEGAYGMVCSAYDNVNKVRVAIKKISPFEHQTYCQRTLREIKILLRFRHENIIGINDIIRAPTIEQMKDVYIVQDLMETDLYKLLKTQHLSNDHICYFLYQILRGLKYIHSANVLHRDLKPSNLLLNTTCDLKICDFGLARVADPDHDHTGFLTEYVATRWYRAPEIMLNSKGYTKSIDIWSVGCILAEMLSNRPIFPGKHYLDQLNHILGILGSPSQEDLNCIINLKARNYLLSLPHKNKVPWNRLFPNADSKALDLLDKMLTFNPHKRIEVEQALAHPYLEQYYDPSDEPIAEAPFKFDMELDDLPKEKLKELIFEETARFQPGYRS
Type: biochemical
Description: Production of Activated ERK2 Protein:
Activated ERK2 protein was generated in insect cells by co-expression with a constitutively active form of MEK1. The ERK2 protein was expressed and purified as a nHis-PreScission-ERK2 tagged protein and then proteolytically processed to the full-length wild-type protein. […] Double-phosphorylated ERK2 protein was purified from the mixture by mono-Q column separation.
Activated ERK2 Kinase Assay:
A 16-point, half-log dilution series of compounds at 41× final concentration was used for generating IC50 curves. Compound dilution series were prepared in 100% DMSO. ERK2 was preincubated with compounds for 30 minutes at ambient temperature. Reaction was initiated by addition of a substrate cocktail of ERKtide peptide and ATP and was allowed to proceed for 2-3 hours at ambient temperature. Reaction was terminated by addition of 10 μL of a 2× stop buffer consisting of 100 mM Tris-Cl [pH 7.5], 25 mM EDTA, 0.01% Tween 20, 10 μg/mL of AlphaScreen Protein A Acceptor Beads, 10 μg/mL of Streptavidin Donor Beads (PerkinElmer, Waltham, Mass.), and 1.4 μg/mL phospho-EGF Receptor (Thr669) antibody (Cat #3056, Cell Signaling Technology, Danvers, Mass.). Terminated reactions were read, after overnight incubation in the dark, on an EnVision Multilabel Plate Reader (PerkinElmer, Waltham, Mass.), with excitation and emission wavelengths set to 680 nm and 570 nm, respectively. IC50 values were determined using a four-parameter fit.
`CC1(C)c2cnc(N[C@H]3CC[C@@H](O)CC3)nc2CN1C(=O)N[C@H](CO)c1ccccc1` [compound 62, N-((S)-2-hydroxy-1-phenylethyl)-2-(((1s,4R)-4-hydroxycyclohexyl)amino)-5,5-dimethyl-5H-pyrrolo[3,4-d]pyrimidine-6(7H)-carboxamide] showed an IC50 of 896 nM. For `CC(=O)N1CC[C@H](Nc2ncc3c(n2)CN(C(=O)N[C@H](CO)c2ccccc2)C3(C)C)C1` [compound 63, 2-(((S)-1-acetylpyrrolidin-3-yl)amino)-N-((S)-2-hydroxy-1-phenylethyl)-5,5-dimethyl-5H-pyrrolo[3,4-d]pyrimidine-6(7H)-carboxamide], the IC50 was 3560 nM. `CC(=O)N1CC[C@@H](Nc2ncc3c(n2)CN(C(=O)N[C@H](CO)c2ccccc2)C3(C)C)C1` [compound 64, 2-(((R)-1-acetylpyrrolidin-3-yl)amino)-N-((S)-2-hydroxy-1-phenylethyl)-5,5-dimethyl-5H-pyrrolo[3,4-d]pyrimidine-6(7H)-carboxamide] was tested, and the IC50 was 740 nM. Compound `COC(=O)N1CC[C@H](Nc2ncc3c(n2)CN(C(=O)N[C@H](CO)c2ccccc2)C3(C)C)C1` [compound 65, (S)-methyl 3-((6-(((S)-2-hydroxy-1-phenylethyl)carbamoyl)-5,5-dimethyl-6,7-dihydro-5H-pyrrolo[3,4-d]pyrimidin-2-yl)amino)pyrrolidine-1-carboxylate] has an IC50 of 8830 nM. For `COC(=O)N1CC[C@@H](Nc2ncc3c(n2)CN(C(=O)N[C@H](CO)c2ccccc2)C3(C)C)C1` [compound 66, (R)-methyl 3-((6-(((S)-2-hydroxy-1-phenylethyl)carbamoyl)-5,5-dimethyl-6,7-dihydro-5H-pyrrolo[3,4-d]pyrimidin-2-yl)amino)pyrrolidine-1-carboxylate], the IC50 was 30 nM. `CO[C@H]1CC[C@H](Nc2ncc3c(n2)CN(C(=O)N[C@H](CO)c2ccccc2)C3(C)C)CC1` [compound 67, N-((S)-2-hydroxy-1-phenylethyl)-2-(((1r,4S)-4-methoxycyclohexyl)amino)-5,5-dimethyl-5H-pyrrolo[3,4-d]pyrimidine-6(7H)-carboxamide] showed an IC50 of 68 nM. `CC(=O)N1CC2C(C1)C2Nc1ncc2c(n1)CN(C(=O)N[C@H](CO)c1ccccc1)C2(C)C` (stereo partly drawn) [compound 68, 2-((3-acetyl-3-azabicyclo[3.1.0]hexan-6-yl)amino)-N-((S)-2-hydroxy-1-phenylethyl)-5,5-dimethyl-5H-pyrrolo[3,4-d]pyrimidine-6(7H)-carboxamide] was tested, and the IC50 was 450 nM. Compound `CC(=O)N1CC(Nc2ncc3c(n2)CN(C(=O)N[C@H](CO)c2ccccc2)C3(C)C)C1` [compound 69, (S)-2-((1-acetylazetidin-3-yl)amino)-N-(2-hydroxy-1-phenylethyl)-5,5-dimethyl-5H-pyrrolo[3,4-d]pyrimidine-6(7H)-carboxamide] has an IC50 of 5580 nM. `CC1(C)c2cnc(NC3CCS(=O)(=O)C3)nc2CN1C(=O)N[C@H](CO)c1ccccc1` (stereo partly drawn) [compound 70, 2-((1,1-dioxidotetrahydrothiophen-3-yl)amino)-N-((S)-2-hydroxy-1-phenylethyl)-5,5-dimethyl-5H-pyrrolo[3,4-d]pyrimidine-6(7H)-carboxamide] gave an IC50 of 932 nM. Work on `Cn1ccc(Nc2ncc3c(n2)CN(C(=O)N[C@H](CO)c2ccccc2)C3(C)C)n1` [compound 71, (S)-N-(2-hydroxy-1-phenylethyl)-5,5-dimethyl-2-((1-methyl-1H-pyrazol-3-yl)amino)-5H-pyrrolo[3,4-d]pyrimidine-6(7H)-carboxamide] yielded an IC50 of 2550 nM. With `CC1(C)c2cnc(NCC3CCCCO3)nc2CN1C(=O)N[C@H](CO)c1ccccc1` (stereo partly drawn) [compound 72, N-((S)-2-hydroxy-1-phenylethyl)-5,5-dimethyl-2-(((tetrahydro-2H-pyran-2-yl)methyl)amino)-5H-pyrrolo[3,4-d]pyrimidine-6(7H)-carboxamide] the IC50 was 5310 nM. For `CC(Nc1ncc2c(n1)CN(C(=O)N[C@H](CO)c1ccccc1)C2(C)C)C1CCCO1` (stereo partly drawn) [compound 73, N-((S)-2-hydroxy-1-phenylethyl)-5,5-dimethyl-2-((1-(tetrahydrofuran-2-yl)ethyl)amino)-5H-pyrrolo[3,4-d]pyrimidine-6(7H)-carboxamide], the IC50 was 315 nM.
